Laboratory results reported in US20220339122A1, “METHODS FOR THE TREATMENT OF DISEASES ASSOCIATED WITH DYSREGULATED ACTIVATION AND RECRUITMENT OF NEUTROPHILS” (Chang Gung University, priority 2021, published 2022).

How the values were obtained:
Assay type in all cases: biochemical
Conditions in all cases: 1-10 μM bletinib or 0.1-3 μM PP2; 125 μM ATP; concentration-dependent
Fgr = Fgr (Homo sapiens, UniProt P09769); experiment: Cell-free ADP-Glo kinase assay, Fgr
Method: (§1) The kinase activity of SFKs was assessed using an ADP-Glo kinase assay kit (Promega, Fitchburg, USA) according to manufacturer instructions. […] The ADP-Glo reagent was used to end the kinase reaction and remove the remnant ATP; next, the kinase, which converted ADP to ATP, detection reagent was added and incubated for 30 min. Luciferin/luciferase luminescence was determined on an Infinite 200 Pro (Tecan, Switzerland).

Lyn = Lyn (Homo sapiens, UniProt P07948); experiment: Cell-free ADP-Glo kinase assay, Lyn
Chain of Lyn (P07948 whole entry): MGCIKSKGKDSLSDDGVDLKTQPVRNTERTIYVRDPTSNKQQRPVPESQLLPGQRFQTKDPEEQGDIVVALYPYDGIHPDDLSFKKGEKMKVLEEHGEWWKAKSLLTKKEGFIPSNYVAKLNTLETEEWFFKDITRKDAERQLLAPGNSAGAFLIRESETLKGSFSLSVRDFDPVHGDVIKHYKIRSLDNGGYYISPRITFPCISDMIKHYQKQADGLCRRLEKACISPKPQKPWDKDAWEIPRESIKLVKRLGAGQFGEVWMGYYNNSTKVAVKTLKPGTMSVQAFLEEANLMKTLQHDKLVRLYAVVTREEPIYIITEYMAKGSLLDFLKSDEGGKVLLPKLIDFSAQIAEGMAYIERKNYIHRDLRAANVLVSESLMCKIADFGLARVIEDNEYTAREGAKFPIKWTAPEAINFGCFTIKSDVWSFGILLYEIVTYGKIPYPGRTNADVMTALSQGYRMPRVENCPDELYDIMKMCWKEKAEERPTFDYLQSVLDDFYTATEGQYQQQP
Method: as §1

Src = Src (Homo sapiens, UniProt P12931); experiment: Cell-free ADP-Glo kinase assay, Src
Chain of Src (P12931 whole entry): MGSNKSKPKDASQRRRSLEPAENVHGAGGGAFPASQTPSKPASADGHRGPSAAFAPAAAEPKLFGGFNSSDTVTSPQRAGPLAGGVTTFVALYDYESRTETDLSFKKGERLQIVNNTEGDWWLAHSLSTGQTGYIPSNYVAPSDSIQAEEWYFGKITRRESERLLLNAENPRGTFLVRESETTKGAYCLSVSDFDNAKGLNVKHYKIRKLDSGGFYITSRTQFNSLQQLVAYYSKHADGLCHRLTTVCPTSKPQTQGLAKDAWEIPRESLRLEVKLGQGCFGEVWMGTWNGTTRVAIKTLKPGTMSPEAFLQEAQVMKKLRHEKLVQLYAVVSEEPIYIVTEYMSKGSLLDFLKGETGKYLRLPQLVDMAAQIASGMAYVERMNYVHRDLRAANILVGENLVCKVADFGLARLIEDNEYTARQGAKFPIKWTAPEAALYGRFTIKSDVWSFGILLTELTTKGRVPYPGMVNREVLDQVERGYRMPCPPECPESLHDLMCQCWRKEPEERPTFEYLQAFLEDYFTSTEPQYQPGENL
Method: as §1

Chain of Fgr (P09769 whole entry): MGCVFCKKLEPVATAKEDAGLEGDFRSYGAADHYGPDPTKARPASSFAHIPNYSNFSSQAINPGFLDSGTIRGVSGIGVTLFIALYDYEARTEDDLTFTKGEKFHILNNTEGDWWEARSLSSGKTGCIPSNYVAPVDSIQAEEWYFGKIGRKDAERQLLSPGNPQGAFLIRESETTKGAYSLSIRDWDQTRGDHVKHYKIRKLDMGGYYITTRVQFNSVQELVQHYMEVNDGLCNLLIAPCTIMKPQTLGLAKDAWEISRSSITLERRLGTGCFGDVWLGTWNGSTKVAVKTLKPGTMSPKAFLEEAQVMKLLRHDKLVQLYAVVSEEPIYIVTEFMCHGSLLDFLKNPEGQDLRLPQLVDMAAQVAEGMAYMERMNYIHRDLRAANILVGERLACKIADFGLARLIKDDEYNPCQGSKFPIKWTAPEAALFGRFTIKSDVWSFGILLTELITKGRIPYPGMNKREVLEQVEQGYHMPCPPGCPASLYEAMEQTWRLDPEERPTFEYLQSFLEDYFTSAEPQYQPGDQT

CC(C)(C)n1nc(-c2ccc(Cl)cc2)c2c(N)ncnc21 [PP2, reference compound]
inhibited: kinase activity of Fgr (Fgr) | kinase activity of Lyn (Lyn) | kinase activity of Src (Src)
